Test results from patent US12109184B2, “Personalized methods of treating cancer” (CANCER RESEARCH TECHNOLOGY LIMITED, priority 2020, dated 2024).

Assays:
Assay type in all cases: cell-based
[1] = tested on: MTAP-expressing HCT116 cells; assay: Cell counting during cysteine starvation, MTAP-expressing HCT116; settings: −Cys with or without methionine
Text: (§1) [NT] Successfully transfected cells were selected with puromycin and grown as clonal colonies. Clones were selected based initially on MTA efflux measured by liquid chromatography mass spectrometry (LC-MS). Clones with greatest MTA efflux were selected, and methylthioadenosine phosphorylase knockout (MTAP-KO) was then confirmed by western blot. MTAP-KO HCT116 cells were transfected with pCMV-Hygro-MTAP and pCMV-Hygro-negative control vector, selected using hygromycin B, and grown as clonal colonies. Clones were selected based initially on MTA efflux measured by LC-MS. Clones with low MTA efflux were selected, then MTAP re-expression was confirmed by western blot. […] DAPI-stained cell nuclei were detected via microscopy. For experiments using spermine oxidase (SMOX) and polyamine oxidase (PAOX) inhibitors or MTOB, cells were pre-treated with stated concentrations for 16 hours in complete medium. After pre-treatment, cells were washed in PBS, and treatment was continued in complete or cysteine-free medium for stated times. After treatment was finished, cells were fixed and stained as described above. For experiments using MTA, polyamines, GPX4 and CSE inhibitors, treatment started at the same time as cysteine starvation. For experiments involving hypoxic conditions, cells were seeded in normoxic conditions and allowed to adhere for 24 hours before control and cysteine starvation medium was added and cells were immediately transferred either to a humidified cell culture incubator set to 37° C. in 20% O2 (normoxia), or a hypoxia chamber set to 37° C. in 1% O2 (hypoxia) for the stated times. Cells were fixed immediately and stained as described above.

[2] = tested on: MDA-MB-231, MIAPaCa-2 and PANC-1 cells; assay: Cell counting during cysteine starvation, starvation-sensitive cell lines; settings: medium without cysteine
Procedure: The base medium formulation contained 0.2 mM L-histidine, 0.4 mM L-isoleucine, 0.4 mM L-leucine, 0.4 mM L-lysine, 0.2 mM L-phenylalanine, 0.4 mM L-threonine, 0.08 mM L-tryptophan, 0.4 mM L-valine, 0.2 mM L-arginine, 2 mM L-glutamine, 0.2 mM L-tyrosine, 0.4 mM L-alanine, 0.3 mM L-proline, 0.15 mM L-glutamic acid, 0.1 mM L-aspartic acid, 0.2 mM L-asparagine, and 0.4 mM glycine.
DAPI-stained cell nuclei were detected via microscopy.
AMD1 inhibitor sardomozide/SAM486A, GPX4 inhibitor RSL3, and CSE inhibitor beta-cyano-L-alanine were used.
For experiments using spermine oxidase (SMOX) and polyamine oxidase (PAOX) inhibitors or MTOB, cells were pre-treated with stated concentrations for 16 hours in complete medium. After pre-treatment, cells were washed in PBS, and treatment was continued in complete or cysteine-free medium for stated times. After treatment was finished, cells were fixed and stained as described above. For experiments using MTA, polyamines, GPX4 and CSE inhibitors, treatment started at the same time as cysteine starvation. For experiments involving hypoxic conditions, cells were seeded in normoxic conditions and allowed to adhere for 24 hours before control and cysteine starvation medium was added and cells were immediately transferred either to a humidified cell culture incubator set to 37° C. in 20% O2 (normoxia), or a hypoxia chamber set to 37° C. in 1% O2 (hypoxia) for the stated times. Cells were fixed immediately and stained as described above.

[3] = tested on: MTAP-deleted HCT116 cells; assay: Cell counting during cysteine starvation, MTAP-deleted HCT116; settings: −Cys, low levels of methionine
Text: as §1, with “microscopy. […]” for “microscopy.”

## CSCC[C@H](N)C(=O)O [methionine]
[1]
  effect of presence of methionine during cysteine starvation: advantageous
[2]; methionine 0 to 10 μM, 17 h and 41 h
  sensitivity to cysteine starvation versus methionine concentration: remained sensitive to cysteine starvation down to 5 μM methionine
[2]; methionine 10 μM-1000 μM, 20 h
  sensitivity to cysteine starvation versus methionine concentration: remained highly sensitive
[3]
  effect of methionine on survival during cysteine starvation: inhibited the ability of MTAP deleted cells to survive
